The values below come from patent US10913738B2 (BRISTOL-MYERS SQUIBB COMPANY, priority 2017, dated 2021).

In assay [1] the target is T1, His-GST-TVMV-hRIPK1(1-324) (Homo sapiens, UniProt Q13546).
T1 construct: The coding region of human RIPK1(1-324) flanked by NdeI site at 5′ end; made in house; host or cells: Spodoptera frugiperda (Sf9) insect cells, baculovirus
T1 sequence (Q13546 1-324): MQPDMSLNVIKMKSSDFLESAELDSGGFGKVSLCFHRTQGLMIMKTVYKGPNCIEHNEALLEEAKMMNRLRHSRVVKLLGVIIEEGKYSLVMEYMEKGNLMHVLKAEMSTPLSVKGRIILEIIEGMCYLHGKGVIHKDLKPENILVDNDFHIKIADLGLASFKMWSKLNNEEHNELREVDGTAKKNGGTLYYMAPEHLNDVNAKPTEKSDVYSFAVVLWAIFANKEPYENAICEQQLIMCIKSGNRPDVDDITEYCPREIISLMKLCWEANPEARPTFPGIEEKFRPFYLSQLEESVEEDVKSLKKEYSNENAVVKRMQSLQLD
The assay is described as follows: RIPK1 HTRF Binding Assay.

In assay [2] the test system is MLKL phosphorylation in HT29-L23 human colorectal adenocarcinoma cells. In words: MLKL Phosphorylation High-Content Assay. Type of assay: cell-based. Particulars: Homo sapiens. The gist of the method: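 IC50 and Ymax obtained by 4-parameter logistic fitting of MLKL phosphorylation, measured as mean circ-ring average intensity ratio from high-content images. Staining used an anti-phospho-S358 MLKL antibody overnight at 4° C., following six-hour cell incubation at 37° C.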

Where [3] appears, read: x marks IC50 class 20-200 nM, read-out: RIPK1 HTRF binding 20-200 nM.
[4] abbreviates: x marks IC50 class >200 nM, read-out: pMLKL cell activity >200 nM.
Setting [5] is: x marks IC50 class <20 nM, read-out: RIPK1 HTRF binding <20 nM.
Where [6] appears, read: x marks IC50 class <20 nM, read-out: pMLKL cell activity <20 nM.
Where [7] appears, read: x marks IC50 class 20-200 nM, read-out: pMLKL cell activity 20-200 nM.
[8] abbreviates: x marks IC50 class >200 nM, read-out: RIPK1 HTRF binding >200 nM.

Where two headings read alike, the source gives them in different places.

In the case of `COc1nc(C)c(-c2ccn3nc(N)nc3c2)cc1C(=O)NCc1cc(F)cc(C(F)(F)F)c1` [Example 196, 5-{2-amino-[1,2,4]triazolo[1,5-a]pyridin-7-yl}-N-{[3-fluoro-5-(trifluoromethyl)phenyl]methyl}-2-methoxy-6-methylpyridine-3-carboxamide], the IC50 was 20 to 200 nM in assay [1] (setting [3]) and more than 200 nM in assay [2] (setting [4]).

Consider `COc1ncc(-c2ccn3nc(N)nc3c2)cc1C(=O)NCc1c(OCC2CC2)ccc(F)c1F` [Example 338, 5-(2-amino-[1,2,4]triazolo[1,5-a]pyridin-7-yl)-N-(6-(cyclopropylmethoxy)-2,3-difluorobenzyl)-2-methoxynicotinamide], for which the IC50 in assay [1] (setting [5]) and in assay [2] (setting [6]) was less than 20 nM in each case.

As for `COc1nc(C)c(-c2ccn3nc(N)nc3c2)cc1C(=O)NCc1cc(OC(F)(F)F)ccc1F` [Example 201, 5-{2-amino-[1,2,4]triazolo[1,5-a]pyridin-7-yl}-N-{[2-fluoro-5-(trifluoromethoxy)phenyl]methyl}-2-methoxy-6-methylpyridine-3-carboxamide], the IC50 in assay [1] (setting [5]) was less than 20 nM; in assay [2] (setting [7]), 20 to 200 nM.

For the compound `COc1ncc(-c2ccn3nc(N)nc3c2)cc1C(=O)NCc1cc(F)cc(F)c1OC1CC(C)OC(C)C1` (stereo not shown) [Example 362, 5-(2-amino-[1,2,4]triazolo[1,5-a]pyridin-7-yl)-N-(2-((2,6-dimethyltetrahydro-2H-pyran-4-yl)oxy)-3,5-difluorobenzyl)-2-methoxynicotinamide], the IC50 in assay [1] (setting [3]) and in assay [2] (setting [7]) was 20 to 200 nM each time.

Take `Cc1ncc(-c2ccn3nc(N)nc3c2)cc1C(=O)NCc1cc(F)ccc1OC1CCCC1` [Example 242, 5-{2-amino-[1,2,4]triazolo[1,5-a]pyridin-7-yl}-N-{[2-(cyclopentyloxy)-5-fluorophenyl]methyl}-2-methylpyridine-3-carboxamide]: the IC50 in assay [1] (setting [5]) and in assay [2] (setting [6]) was less than 20 nM in each case.

As to `COc1ncc(-c2ccn3nc(N)nc3c2)cc1C(=O)NC1CCCC(NC(=O)OC(C)(C)C)C1` (stereo not shown) [Example 426, tert-butyl (3-(5-(2-amino-[1,2,4]triazolo[1,5-a]pyridin-7-yl)-2-methoxynicotinamido)cyclohexyl)carbamate], the IC50 in assay [1] (setting [8]) and in assay [2] (setting [4]) was more than 200 nM each time.

For `Nc1nc2cc(-c3cc(C(=O)Nc4cnn(Cc5ccccc5)c4)c4cc(F)ccc4n3)ccn2n1` [Example 68, 2-{2-Amino-[1,2,4]triazolo[1,5-a]pyridin-7-yl}-N-(1-benzyl-1H-pyrazol-4-yl)-6-fluoroquinoline-4-carboxamide], the IC50 in assay [1] (setting [3]) and in assay [2] (setting [7]) was 20 to 200 nM each time.

Turning to `COc1nc(C)c(-c2ccn3nc(N)nc3c2)cc1C(=O)NCc1cccc(C(F)(F)F)c1` [Example 199, 5-{2-amino-[1,2,4]triazolo[1,5-a]pyridin-7-yl}-2-methoxy-6-methyl-N-{[3-(trifluoromethyl)phenyl]methyl}pyridine-3-carboxamide], the IC50 was 20 to 200 nM in assay [1] (setting [3]) and more than 200 nM in assay [2] (setting [4]).

With `[2H]C([2H])([2H])[C@@H](NC(=O)c1cc(-c2ccn3nc(N)nc3c2)cnc1C)c1cc(OC(F)(F)F)ccc1F` [Example 299, (R)-5-(2-amino-[1,2,4]triazolo[1,5-a]pyridin-7-yl)-N-(1-(2-fluoro-5-(trifluoromethoxy)phenyl)ethyl-2,2,2-d3)-2-methylnicotinamide], the IC50 in assay [1] (setting [5]) and in assay [2] (setting [6]) was less than 20 nM in each case.

As for `[2H]C([2H])([2H])[C@H](NC(=O)c1cc(-c2ccn3nc(N)nc3c2)cnc1C)c1cccc(OC(F)(F)F)c1` [Example 310, (S)-5-(2-amino-[1,2,4]triazolo[1,5-a]pyridin-7-yl)-2-methyl-N-(1-(3-(trifluoromethoxy)phenyl)ethyl-2,2,2-H3)nicotinamide], the values for the IC50 in assay [1] (setting [3]) and in assay [2] (setting [4]) were 20 to 200 nM and more than 200 nM, respectively.

In the case of `COc1nc(C)c(-c2ccn3nc(N)nc3c2)cc1C(=O)NCc1c(F)cccc1OC1CCCC1` [Example 217, 5-{2-amino-[1,2,4]triazolo[1,5-a]pyridin-7-yl}-N-{[2-(cyclopentyloxy)-6-fluorophenyl]methyl}-2-methoxy-6-methylpyridine-3-carboxamide], the IC50 in assay [1] (setting [5]) was less than 20 nM; in assay [2] (setting [7]), 20 to 200 nM.

Regarding `COc1nc(C)c(-c2ccn3nc(N)nc3c2)cc1C(=O)NCc1ncccc1OCC1CCCC1` [Example 203, 5-{2-amino-[1,2,4]triazolo[1,5-a]pyridine-7-yl}-N-{[3-(cyclopentylmethoxy)pyridin-2-yl]methyl}-2-methoxy-6-methylpyridine-3-carboxamide], the IC50 in assay [1] (setting [5]) is less than 20 nM; in assay [2] (setting [7]), 20 to 200 nM.

With `Cc1nc(C)c(-c2ccn3nc(N)nc3c2)cc1C(=O)NCc1cc(OC(F)(F)F)ccc1F` [Example 181, 5-{2-amino-[1,2,4]triazolo[1,5-a]pyridin-7-yl}-N-{[2-fluoro-5-(trifluoromethoxy)phenyl]methyl}-2,6-dimethylpyridine-3-carboxamide], the IC50 in assay [1] (setting [5]) and in assay [2] (setting [6]) was less than 20 nM throughout.

As for `COc1ncc(-c2ccn3nc(N)nc3c2)cc1C(=O)NCc1ccccc1OC1CCOCC1` [Example 115, 5-{2-amino-[1,2,4]triazolo[1,5-a]pyridin-7-yl}-2-methoxy-N-{[2-(oxan-4-yloxy)phenyl]methyl}pyridine-3-carboxamide], the IC50 in assay [1] (setting [5]) and in assay [2] (setting [6]) was less than 20 nM in each case.

`Cc1ncc(-c2ccn3nc(N)nc3c2)cc1C(=O)NCc1c(F)cccc1OC1CCCC1` [Example 247, 5-{2-amino-[1,2,4]triazolo[1,5-a]pyridin-7-yl}-N-{[2-(cyclopentyloxy)-6-fluorophenyl]methyl}-2-methylpyridine-3-carboxamide]: the IC50 in assay [1] (setting [5]) and in assay [2] (setting [6]) was less than 20 nM in each case.

For the compound `COc1ncc(-c2ccn3nc(N)nc3c2)cc1C(=O)NCc1cc(F)ccc1OCC1CCCC1` [Example 129, 5-{2-amino-[1,2,4]triazolo[1,5-a]pyridin-7-yl}-N-{[2-(cyclopentylmethoxy)-5-fluorophenyl]methyl}-2-methoxypyridine-3-carboxamide], the IC50 in assay [1] (setting [5]) is less than 20 nM; in assay [2] (setting [7]), 20 to 200 nM.

Turning to `COc1ncc(-c2ccn3nc(N)nc3c2)cc1C(=O)NCc1cnccc1OC1CCCC1` [Example 21, 5-{2-Amino-[1,2,4]triazolo[1,5-a]pyridin-7-yl}-N-{[4-(cyclopentyloxy)pyridin-3-yl]methyl}-2-methoxypyridine-3-carboxamide], the IC50 in assay [1] (setting [5]) was less than 20 nM; in assay [2] (setting [7]), 20 to 200 nM.

Turning to `COc1ccccc1[C@@H](C)NC(=O)c1cc(-c2ccn3nc(N)nc3c2)cnc1OC` [Example 156, 5-{2-amino-[1,2,4]triazolo[1,5-a]pyridin-7-yl}-2-methoxy-N-[(1R)-1-(2-methoxyphenyl)ethyl]pyridine-3-carboxamide], the IC50 is 20 to 200 nM in assay [1] (setting [3]) and more than 200 nM in assay [2] (setting [4]).

For `[2H]C([2H])([2H])Oc1ncc(-c2ccn3nc(N)nc3c2)cc1C(=O)NC(C)c1ccccc1OC(F)(F)F` (single isomer, unassigned) [Example 95-1, 5-{2-amino-[1,2,4]triazolo[1,5-a]pyridin-7-yl}-2-(deutero)methoxy-N-{1-[2-(trifluoromethoxy)phenyl]ethyl}pyridine-3-carboxamide], the IC50 in assay [1] (setting [8]) and in assay [2] (setting [4]) was more than 200 nM in each case.

With `[2H]C([2H])([2H])c1ncc(-c2ccn3nc(N)nc3c2)cc1C(=O)NCc1cc(OC(F)(F)F)ccc1F` [Example 96, 5-{2-amino-[1,2,4]triazolo[1,5-a]pyridin-7-yl}-N-{[2-fluoro-5-(trifluoromethoxy)phenyl]methyl}-2-(deutero)methylpyridine-3-carboxamide], the IC50 in assay [1] (setting [5]) was less than 20 nM; in assay [2] (setting [7]), 20 to 200 nM.

Take `COc1ncc(-c2ccn3nc(N)nc3c2)cc1NC(=O)Cc1cc(OC(F)(F)F)ccc1F` [Example 414, N-(5-(2-amino-[1,2,4]triazolo[1,5-a]pyridin-7-yl)-2-methoxypyridin-3-yl)-2-(2-fluoro-5-(trifluoromethoxy)phenyl)acetamide]: the IC50 in assay [1] (setting [5]) was less than 20 nM; in assay [2] (setting [7]), 20 to 200 nM.

Consider `Cc1nc(C)c(-c2ccn3nc(N)nc3c2)cc1C(=O)NCc1cc(F)cc(F)c1OCC1CCCC1` [Example 188, 5-{2-amino-[1,2,4]triazolo[1,5-a]pyridin-7-yl}-N-{[2-(cyclopentylmethoxy)-3,5-difluorophenyl]methyl}-2,6-dimethylpyridine-3-carboxamide], for which the IC50 in assay [1] (setting [5]) and in assay [2] (setting [6]) was less than 20 nM in each case.

`CCc1ncc(-c2ccn3nc(N)nc3c2)cc1C(=O)N[C@H](C)c1cc(OC(F)(F)F)ccc1F` [Example 320, (R)-5-(2-amino-[1,2,4]triazolo[1,5-a]pyridin-7-yl)-2-ethyl-N-(1-(2-fluoro-5-(trifluoromethoxy)phenyl)ethyl)nicotinamide]: the IC50 in assay [1] (setting [3]) was 20 to 200 nM; in assay [2] (setting [6]) it was less than 20 nM.
